Measured values as given in PMC6429214, “Design, Synthesis and Biological Evaluation of Isoxazole-Based CK1 Inhibitors Modified with Chiral Pyrrolidine Scaffolds” (Molecules, 2019).

Legend:
Experiment in all cases: 33PanQinase panel
Assay type in all cases: biochemical
GRK5 = target: T1, GRK5 (Homo sapiens, UniProt P34947); details: GRK5, 1 µM; read-out: Residual Activity (%)
T1 construct: purchased ProQinase
Method: (§1) Figure 5 Dendrogram representation of the selectivity profile of 29d at a concentration of 1 μM in a panel of 320 wild-type kinases (ProQinase, Freiburg, Germany). The residual kinase activity was determined compared to DMSO control. Images were generated using TREEspot Software Tool, DISCOVERX CORPORATION 2010.
(§2) Figure S1. X-ray crystal structure of intermediate compound 25d (ORTEP drawing with ellipsoids at 30% probability). CCDC 1589043 contains the supplementary crystallographic data for this paper. The data can be obtained free of charge from The Cambridge Crystallographic Data Centre via www.ccdc.cam.ac.uk/structures.
(§3) Table S1 Data collection, structure refinement and Ramachrandran plot results of protein crystallization of CK1δ in complex with compound 30a and 30b, respectively.
(§4) Root-mean-square deviations
(§5) Additionally allowed 2.6 2.2
(§6) Table S2. Selectivity profile of compound 29d. The inhibitor has been screened at a concentration of 1 µM over a panel of 320 wild-type protein kinases by ProQinase GmbH (Freiburg, Germany) using an activity-based radiometric 33PanQinase® assay. Results are presented as percentage of residual kinase activity relative to […]
(§7) control. The final DMSO concentration was 1 % in each reaction-mix. Classification of protein kinase families refers to Manning et al. (Manning, G.; Whyte, D. B.; Martinez, R.; Hunter, T.; Sudarsanam, S. The Protein Kinase Complement of the Human Genome. Science 2002, 298, 1912–1934): AGC = containing PKA, PKG, PKC families; […] = containing Cdk, MAPK, GSK3, CLK families; STE = homologs of yeast sterile 7, sterile 11, sterile 20 kinases; TK = tyrosine kinase; TKL = tyrosine kinase-like.
(§8) Kinase name Kinase family Residual Activity (%)

ERK7 = target: T2, ERK7 (Homo sapiens, UniProt Q8TD08); details: ERK7, 1 µM; read-out: Residual Activity (%)
T2 construct: purchased ProQinase
Method: as §1, §2, §3, §4, §5, §6, §7, §8

TSF1 = target: T3, TSF1 (Homo sapiens, UniProt O75716); details: TSF1, 1 µM; read-out: Residual Activity (%)
T3 construct: purchased ProQinase
Method: as §1, §2, §3, §4, §5, §6, §7, §8

MYLK3 = target: T4, MYLK3 (Homo sapiens, UniProt Q32MK0); details: MYLK3, 1 µM; read-out: Residual Activity (%)
T4 construct: purchased ProQinase
Method: as §1, §2, §3, §4, §5, §6, §7, §8

BUB1B = target: T5, BUB1B (Homo sapiens, UniProt O60566); details: read-out: Residual Activity (%)
T5 construct: purchased ProQinase
Method: as §1, §2, §3, §4, §5, §6, §7, §8

SNK = target: T6, SNK (Homo sapiens, UniProt Q9NYY3); details: read-out: Residual Activity (%)
T6 construct: purchased ProQinase
Method: as §1, §2, §3, §4, §5, §6, §7, §8

PAK7 = target: T7, PAK7 (Homo sapiens, UniProt Q9P286); details: PAK7, 1 µM; read-out: Residual Activity (%)
T7 construct: purchased ProQinase
Method: as §1, §2, §3, §4, §5, §6, §7, §8

LYN = target: T8, LYN (Homo sapiens, UniProt P07948); details: read-out: Residual Activity (%)
T8 construct: purchased ProQinase
Method: as §1, §2, §3, §4, §5, §6, §7, §8

CAMK2B = target: T9, CAMK2B (Homo sapiens, UniProt Q13554); details: read-out: Residual Activity (%)
T9 construct: purchased ProQinase
Method: as §1, §2, §3, §4, §5, §6, §7, §8

MAP3K1 = target: T10, MAP3K1 (Homo sapiens, UniProt Q13233); details: MAP3K1, 1 µM; read-out: Residual Activity (%)
T10 construct: purchased ProQinase
Method: as §1, §2, §3, §4, §5, §6, §7, §8

EIF2AK2 = target: T11, EIF2AK2 (Homo sapiens, UniProt P19525); details: EIF2AK2, 1 µM; read-out: Residual Activity (%)
T11 construct: purchased ProQinase
Method: as §1, §2, §3, §4, §5, §6, §7, §8

FAK aa2-1052 = target: T12, FAK aa2-1052 (Homo sapiens, UniProt Q05397); details: FAK aa2-1052, 1 µM; read-out: Residual Activity (%)
T12 construct: purchased ProQinase
Method: as §1, §2, §3, §4, §5, §6, §7, §8

SGK3 = target: T13, SGK3 (Homo sapiens, UniProt Q96BR1); details: SGK3, 1 µM; read-out: Residual Activity (%)
T13 construct: purchased ProQinase
Method: as §1, §2, §3, §4, §5, §6, §7, §8

CDK7/CycH/MAT1 = target: T14, CDK7/CycH/MAT1 (Homo sapiens, UniProt P50613); details: CDK7/CycH/MAT1, 1 µM; read-out: Residual Activity (%)
T14 construct: purchased ProQinase
Method: as §1, §2, §3, §4, §5, §6, §7, §8

PKC-alpha = target: T15, PKC-alpha (Homo sapiens, UniProt P17252); details: read-out: Residual Activity (%)
T15 construct: purchased ProQinase
Method: as §1, §2, §3, §4, §5, §6, §7, §8

AXL = target: T16, AXL (Homo sapiens, UniProt P30530); details: read-out: Residual Activity (%)
T16 construct: purchased ProQinase
Method: as §1, §2, §3, §4, §5, §6, §7, §8

PRKG1 = target: T17, PRKG1 (Homo sapiens, UniProt Q13976); details: PRKG1, 1 µM; read-out: Residual Activity (%)
T17 construct: purchased ProQinase
Method: as §1, §2, §3, §4, §5, §6, §7, §8

TAOK2 = target: T18, TAOK2 (Homo sapiens, UniProt Q9UL54); details: TAOK2, 1 µM; read-out: Residual Activity (%)
T18 construct: purchased ProQinase
Method: as §1, §2, §3, §4, §5, §6, §7, §8

LIMK1 = target: T19, LIMK1 (Homo sapiens, UniProt P53667); details: LIMK1, 1 µM; read-out: Residual Activity (%)
T19 construct: purchased ProQinase
Method: as §1, §2, §3, §4, §5, §6, §7, §8

HIPK2 = target: T20, HIPK2 (Homo sapiens, UniProt Q9H2X6); details: HIPK2, 1 µM; read-out: Residual Activity (%)
T20 construct: purchased ProQinase
Method: as §1, §2, §3, §4, §5, §6, §7, §8

ERBB4 = target: T21, ERBB4 (Homo sapiens, UniProt Q15303); details: ERBB4, 1 µM; read-out: Residual Activity (%)
T21 construct: purchased ProQinase
Method: as §1, §2, §3, §4, §5, §6, §7, §8

FER = target: T22, FER (Homo sapiens, UniProt P16591); details: read-out: Residual Activity (%)
T22 construct: purchased ProQinase
Method: as §1, §2, §3, §4, §5, §6, §7, §8

FGF-R2 = target: T23, FGF-R2 (Homo sapiens, UniProt P21802); details: FGF-R2, 1 µM; read-out: Residual Activity (%)
T23 construct: purchased ProQinase
Method: as §1, §2, §3, §4, §5, §6, §7, §8

TLK2 = target: T24, TLK2 (Homo sapiens, UniProt Q86UE8); details: TLK2, 1 µM; read-out: Residual Activity (%)
T24 construct: purchased ProQinase
Method: as §1, §2, §3, §4, §5, §6, §7, §8

MAP3K9 = target: T25, MAP3K9 (Homo sapiens, UniProt P80192); details: MAP3K9, 1 µM; read-out: Residual Activity (%)
T25 construct: purchased ProQinase
Method: as §1, §2, §3, §4, §5, §6, §7, §8

CLK4 = target: T26, CLK4 (Homo sapiens, UniProt Q9HAZ1); details: CLK4, 1 µM; read-out: Residual Activity (%)
T26 construct: purchased ProQinase
Method: as §1, §2, §3, §4, §5, §6, §7, §8

SRC (GST-HIS-tag) = target: T27, SRC (GST-HIS-tag) (Homo sapiens, UniProt P12931); details: read-out: Residual Activity (%)
T27 construct: purchased ProQinase
Method: as §1, §2, §3, §4, §5, §6, §7, §8

T3 sequence (O75716 whole entry): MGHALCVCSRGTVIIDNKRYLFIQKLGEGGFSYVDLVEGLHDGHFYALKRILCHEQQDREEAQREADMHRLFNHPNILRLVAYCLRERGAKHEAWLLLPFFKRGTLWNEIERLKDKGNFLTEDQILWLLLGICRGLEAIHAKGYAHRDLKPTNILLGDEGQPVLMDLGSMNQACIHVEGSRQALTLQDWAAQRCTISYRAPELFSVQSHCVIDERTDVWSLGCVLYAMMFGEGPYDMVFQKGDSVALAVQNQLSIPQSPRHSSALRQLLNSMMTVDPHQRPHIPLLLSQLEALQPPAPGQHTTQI
T10 sequence (Q13233 whole entry): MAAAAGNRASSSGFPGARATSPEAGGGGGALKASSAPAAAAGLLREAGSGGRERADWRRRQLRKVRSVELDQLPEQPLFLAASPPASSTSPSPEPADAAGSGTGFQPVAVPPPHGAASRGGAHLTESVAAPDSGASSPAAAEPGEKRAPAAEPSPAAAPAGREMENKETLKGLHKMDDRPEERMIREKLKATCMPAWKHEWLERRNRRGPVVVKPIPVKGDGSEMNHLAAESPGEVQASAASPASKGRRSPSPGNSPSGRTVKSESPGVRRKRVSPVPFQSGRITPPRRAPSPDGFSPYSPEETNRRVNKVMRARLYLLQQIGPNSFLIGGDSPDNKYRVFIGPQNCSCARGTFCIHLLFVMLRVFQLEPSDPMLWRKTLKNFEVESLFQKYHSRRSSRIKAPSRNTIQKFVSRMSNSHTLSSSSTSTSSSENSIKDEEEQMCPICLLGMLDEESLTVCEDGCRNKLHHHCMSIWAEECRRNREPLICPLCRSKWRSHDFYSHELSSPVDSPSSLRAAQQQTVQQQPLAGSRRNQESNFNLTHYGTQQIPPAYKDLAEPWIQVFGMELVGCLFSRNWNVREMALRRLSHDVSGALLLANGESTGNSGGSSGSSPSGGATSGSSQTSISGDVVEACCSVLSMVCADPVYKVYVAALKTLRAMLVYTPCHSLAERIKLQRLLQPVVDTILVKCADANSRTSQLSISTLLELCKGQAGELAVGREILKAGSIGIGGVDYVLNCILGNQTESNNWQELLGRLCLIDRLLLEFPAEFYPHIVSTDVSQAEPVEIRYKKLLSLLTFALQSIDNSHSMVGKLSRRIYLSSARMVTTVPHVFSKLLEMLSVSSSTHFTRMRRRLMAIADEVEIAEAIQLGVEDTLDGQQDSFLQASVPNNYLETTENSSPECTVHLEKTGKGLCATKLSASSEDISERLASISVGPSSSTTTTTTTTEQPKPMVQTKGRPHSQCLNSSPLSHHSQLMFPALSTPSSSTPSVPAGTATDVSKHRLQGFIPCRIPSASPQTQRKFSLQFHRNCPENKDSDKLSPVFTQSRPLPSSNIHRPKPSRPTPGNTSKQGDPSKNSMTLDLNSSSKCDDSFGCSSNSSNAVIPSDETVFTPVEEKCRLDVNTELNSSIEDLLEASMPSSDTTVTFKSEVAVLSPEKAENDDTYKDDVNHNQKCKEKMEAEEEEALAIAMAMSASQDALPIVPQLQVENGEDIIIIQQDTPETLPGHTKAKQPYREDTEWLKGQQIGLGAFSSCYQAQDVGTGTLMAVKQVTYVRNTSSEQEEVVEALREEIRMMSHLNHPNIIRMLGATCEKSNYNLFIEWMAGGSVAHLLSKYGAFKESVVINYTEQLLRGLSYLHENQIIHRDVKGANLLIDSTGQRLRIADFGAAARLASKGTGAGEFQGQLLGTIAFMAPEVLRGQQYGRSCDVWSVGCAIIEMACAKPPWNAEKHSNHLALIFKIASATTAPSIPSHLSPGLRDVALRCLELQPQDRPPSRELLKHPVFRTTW
T1 sequence (P34947 whole entry): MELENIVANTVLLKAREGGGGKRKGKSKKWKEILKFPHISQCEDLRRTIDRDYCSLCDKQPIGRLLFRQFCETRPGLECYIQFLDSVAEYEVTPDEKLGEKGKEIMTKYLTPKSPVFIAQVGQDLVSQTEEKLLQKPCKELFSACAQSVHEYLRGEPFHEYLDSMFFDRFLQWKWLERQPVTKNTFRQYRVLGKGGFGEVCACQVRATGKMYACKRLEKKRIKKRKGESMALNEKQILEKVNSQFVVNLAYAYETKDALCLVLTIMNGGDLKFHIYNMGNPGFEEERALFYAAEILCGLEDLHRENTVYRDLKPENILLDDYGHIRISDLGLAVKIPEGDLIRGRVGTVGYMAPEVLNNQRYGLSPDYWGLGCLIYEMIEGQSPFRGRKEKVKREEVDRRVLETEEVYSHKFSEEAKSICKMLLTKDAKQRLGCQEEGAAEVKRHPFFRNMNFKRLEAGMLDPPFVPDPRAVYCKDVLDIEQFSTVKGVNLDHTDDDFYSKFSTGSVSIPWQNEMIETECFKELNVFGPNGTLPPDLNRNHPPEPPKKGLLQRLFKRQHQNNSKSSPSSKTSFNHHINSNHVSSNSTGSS
T7 sequence (Q9P286 whole entry): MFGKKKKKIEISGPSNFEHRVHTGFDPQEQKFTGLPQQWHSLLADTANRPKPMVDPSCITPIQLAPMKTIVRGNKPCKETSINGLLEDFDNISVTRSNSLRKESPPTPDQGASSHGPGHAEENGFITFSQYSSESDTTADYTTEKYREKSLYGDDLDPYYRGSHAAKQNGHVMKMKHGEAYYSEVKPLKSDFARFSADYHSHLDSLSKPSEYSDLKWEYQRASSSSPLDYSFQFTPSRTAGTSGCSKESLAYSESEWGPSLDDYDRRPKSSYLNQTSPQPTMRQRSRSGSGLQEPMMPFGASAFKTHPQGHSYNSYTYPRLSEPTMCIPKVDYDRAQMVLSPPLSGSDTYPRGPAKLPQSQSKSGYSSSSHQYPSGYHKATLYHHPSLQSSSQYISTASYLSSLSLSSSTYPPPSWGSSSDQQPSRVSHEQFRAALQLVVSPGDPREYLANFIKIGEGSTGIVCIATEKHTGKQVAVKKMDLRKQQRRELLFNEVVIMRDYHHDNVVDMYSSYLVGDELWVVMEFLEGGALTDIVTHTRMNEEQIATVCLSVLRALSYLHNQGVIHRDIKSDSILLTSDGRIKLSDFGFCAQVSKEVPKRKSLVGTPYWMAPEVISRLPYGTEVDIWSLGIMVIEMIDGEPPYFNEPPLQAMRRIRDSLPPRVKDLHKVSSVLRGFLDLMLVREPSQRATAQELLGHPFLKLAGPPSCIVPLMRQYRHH
T11 sequence (P19525 whole entry): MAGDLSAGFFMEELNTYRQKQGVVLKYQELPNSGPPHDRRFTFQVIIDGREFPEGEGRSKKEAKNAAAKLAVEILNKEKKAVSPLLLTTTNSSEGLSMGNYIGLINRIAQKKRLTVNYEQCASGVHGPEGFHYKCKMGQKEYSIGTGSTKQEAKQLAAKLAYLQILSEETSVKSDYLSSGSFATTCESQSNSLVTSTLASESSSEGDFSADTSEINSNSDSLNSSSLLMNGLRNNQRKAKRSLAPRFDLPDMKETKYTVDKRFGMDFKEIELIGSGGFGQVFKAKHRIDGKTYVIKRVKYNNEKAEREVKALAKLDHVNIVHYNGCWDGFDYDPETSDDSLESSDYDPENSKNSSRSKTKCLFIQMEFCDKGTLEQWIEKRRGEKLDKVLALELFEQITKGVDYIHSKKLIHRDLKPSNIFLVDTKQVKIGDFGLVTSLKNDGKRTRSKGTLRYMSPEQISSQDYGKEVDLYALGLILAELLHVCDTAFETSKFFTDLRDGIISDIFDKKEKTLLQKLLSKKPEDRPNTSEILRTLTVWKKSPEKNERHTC
T26 sequence (Q9HAZ1 whole entry): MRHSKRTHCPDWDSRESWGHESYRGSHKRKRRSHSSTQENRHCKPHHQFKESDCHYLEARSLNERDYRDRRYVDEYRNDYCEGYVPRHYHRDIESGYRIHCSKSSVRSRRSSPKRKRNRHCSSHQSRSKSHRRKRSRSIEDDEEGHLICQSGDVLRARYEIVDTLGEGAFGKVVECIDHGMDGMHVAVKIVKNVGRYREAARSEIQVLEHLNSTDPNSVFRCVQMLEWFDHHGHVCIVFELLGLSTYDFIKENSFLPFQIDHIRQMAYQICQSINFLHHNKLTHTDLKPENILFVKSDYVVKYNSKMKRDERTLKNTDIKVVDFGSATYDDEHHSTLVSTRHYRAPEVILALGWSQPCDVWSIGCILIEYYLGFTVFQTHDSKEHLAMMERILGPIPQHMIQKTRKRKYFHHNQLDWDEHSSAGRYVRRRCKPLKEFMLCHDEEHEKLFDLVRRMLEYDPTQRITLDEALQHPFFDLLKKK

Structure (SMILES): COc1ccc(-c2cc(C(=O)Nc3cc(-c4c(-c5ccc(F)cc5)noc4C(C)C)ccn3)n(CC3NCC(O)C3O)c2)cc1 (stereo not drawn) [29d]
- remaining activity at 1 µM (GRK5): 97%
- remaining activity at 1 µM (ERK7): 102%
- remaining activity at 1 µM (TSF1): 86%
- remaining activity at 1 µM (MYLK3): 87%
- remaining activity at 1 µM (BUB1B): 90%
- remaining activity at 1 µM (SNK): 108%
- remaining activity at 1 µM (PAK7): 97%
- remaining activity at 1 µM (LYN): 122%
- remaining activity at 1 µM (CAMK2B): 102%
- remaining activity at 1 µM (MAP3K1): 94%
- remaining activity at 1 µM (EIF2AK2): 132%
- remaining activity at 1 µM (FAK aa2-1052): 120%
- remaining activity at 1 µM (SGK3): 97%
- remaining activity at 1 µM (CDK7/CycH/MAT1): 98%
- remaining activity at 1 µM (PKC-alpha): 107%
- remaining activity at 1 µM (AXL): 110%
- remaining activity at 1 µM (PRKG1): 89%
- remaining activity at 1 µM (TAOK2): 105%
- remaining activity at 1 µM (LIMK1): 105%
- remaining activity at 1 µM (HIPK2): 83%
- remaining activity at 1 µM (ERBB4): 103%
- remaining activity at 1 µM (FER): 98%
- remaining activity at 1 µM (FGF-R2): 94%
- remaining activity at 1 µM (TLK2): 108%
- remaining activity at 1 µM (MAP3K9): 116%
- remaining activity at 1 µM (CLK4): 104%
- remaining activity at 1 µM (SRC (GST-HIS-tag)): 125%
